Columns and labels:
Type in all cases: in vivo
poultry = test: Feed efficiency studies on poultry under strict laboratory conditions; settings: disease and parasite-free environment, relative to control animals
Description: Studies on poultry conducted under strict laboratory conditions, that is, in a disease and parasitt -free environment, indicate that the administration of feed efficiency agents, such as the amidinoureas defined in formulae I-VI and in particular 1-(2,6-dimethylphenyl)-3-methylamidinourea, results in an increase in the feed conversion ratio and weight gain of the treated animal relative to that of the control animals. The % improvement in the feed conversion ratio in the treated animals as compared with the controls is expressed by: • Body Weight Gain of Body Weight Gain of [formula]

[1] = system: Swiss-Webster male mice or Sprague-Dawley male rats; test: Charcoal motility (intestinal transit of a charcoal suspension); settings: oral dose 4 mg/kg, 30 minutes before charcoal; sacrificed 30 minutes after charcoal; species (mice or rats) not given
Description: A charcoal suspension (10 cm /kg of a 10% suspension of activated charcoal, U.S.P. in 0.5% methylcellulose) is given orally either to groups of 10 Swiss-Webster male mice (18-22 g, Taconic Farms) or groups of 5 Sprague-Dawley male rats (120-140 g, Charles River Breeding Labs., Inc.) 30 minutes after an oral dose of drug or control. The animals are sacrificied 30 minutes after receiving the charcoal and the intestines are carefully removed without stretching and placed lengthwise on moist paper. The length of the intestine (pyloric sphincter to caecum) and the distance travelled by the charcoal as a fraction of that length are evaluated for each animal and group means are compared and expressed as percentage inhibition; [formula] For estimation of the duration of inhibition, the interval between dosing with drug and the administration of charcoal is varied from 30 minutes to 6 hours.

Male Sprague-Dawley rats = test: Gastric emptying test (Amberlite pellet retention in the stomach); settings: Rattus norvegicus, 30 minutes before 30 pellets, pellets counted four hours later; for inhibition at 10 mg/kg: oral dose 10 mg/kg; for inhibition at 0.25 mg/kg: oral dose 0.25 mg/kg; for inhibition at 0.5 mg/kg: oral dose 0.5 mg/kg
Description: The gastric emptying test is performed essentially as described by Brodie in Gastroenterology 50, 45-50 (1966). Male Sprague-Dawley rats (groups of five) are dosed orally with the test compounds or controls 30 minutes before the oral administration of 30 Amerlite pellets (Rohm & Haas Amberlite IRA-93, 1 mm diameter) suspended in 1 cm3 distilled water. The animals are killed with pentobarbital four hours after the pellets are given; the stomachs are removed and the number of pellets remaining in the stomach counted. The control group is compared to the drug treated group using the following formula: %retention = [(mean drug- treated) - (mean control) / 30-(mean control)] X 100.

`CNC(=N)NC(=O)Nc1c(C)cccc1C` [1-(2,6-dimethylphenyl)-3-methylamidinourea] was tested, and the feed conversion ratio (poultry) was “increase” and the weight gain (poultry) was “increase”.

Work on `N=C(N)NC(=O)Nc1c(Br)cccc1Br` [R'=Br, R"=Br, Rm=H, R6=H, R1=H] yielded an inhibition at 4 mg/kg [1] of 91%.

For `Cc1cccc(Br)c1NC(=O)NC(=N)N` [R'=Br, R"=CH3, Rm=H, R6=H, R1=H], the inhibition at 4 mg/kg [1] was 89%.

In the case of `CNC(=N)NC(=O)Nc1c(C)ccc(Br)c1C` [R'=CH3, R"=CH3, Rm=3Br, R6=H, R1=CH3], the inhibition at 4 mg/kg [1] is reported as 22%.

`Cc1cc(C)c(NC(=O)NC(=N)N)c(C)c1` [R'=CH3, R"=CH3, Rm=4-CH3, R6=H, R1=H] was tested, and the inhibition at 10 mg/kg (Male Sprague-Dawley rats) was 45%.

`CCCNC(=N)NC(=O)Nc1c(C)cc(C)cc1C` [R'=CH3, R"=CH3, Rm=4-CH3, R6=H, R1=n-Pr] gave an inhibition at 4 mg/kg [1] of 15%.

Work on `Cc1cccc(C)c1N(C)C(=O)NC(=N)N` [R'=CH3, R"=CH3, Rm=H, R6=CH3, R1=H] yielded an inhibition at 2 mg/kg (Male Sprague-Dawley rats; oral dose 2 mg/kg) of 55%.

`Cc1cccc(C)c1NC(=O)NC(=N)N` [R'=CH3, R"=CH3, Rm=H, R6=H, R1=H] showed an inhibition at 0.25 mg/kg (Male Sprague-Dawley rats) of 55%.

Molecule `CCCCN(C(=O)NC(=N)N)c1c(C)cccc1C` [R'=CH3, R"=CH3, Rm=H, R6=n-Bu, R1=H] has an inhibition at 4 mg/kg [1] of 72%.

`Cc1cc(Cl)ccc1NC(=O)NC(=N)N` [R'=CH3, R"=H, Rm=4-Cl, R6=H, R1=H] showed an inhibition at 10 mg/kg (Male Sprague-Dawley rats) of 28%.

`CNC(=N)NC(=O)Nc1ccccc1C` [R'=CH3, R"=H, Rm=H, R6=H, R1=CH3] was tested, and the inhibition at 4 mg/kg [1] was 11%.

`Cc1ccccc1NC(=O)NC(=N)N` [R'=CH3, R"=H, Rm=H, R6=H, R1=H] was tested, and the inhibition at 10 mg/kg (Male Sprague-Dawley rats) was 54%.

With `Cc1cccc([N+](=O)[O-])c1NC(=O)NC(=N)N` [R'=CH3, R"=NO2, Rm=H, R6=H, R1=H] the inhibition at 4 mg/kg [1] was 82%.

For `Cc1cccc(Cl)c1N(C)C(=O)NC(=N)N` [R'=Cl, R"=CH3, Rm=H, R6=CH3, R1=H], the inhibition at 4 mg/kg [1] was 82%.

In the case of `Cc1cccc(Cl)c1NC(=O)NC(=N)N` [R'=Cl, R"=CH3, Rm=H, R6=H, R1=H], the inhibition at 0.25 mg/kg (Male Sprague-Dawley rats) is reported as 43%.

With `N=C(N)NC(=O)Nc1c(Cl)cc(Br)cc1Cl` [R'=Cl, R"=Cl, Rm=4Br, R6=H, R1=H] the inhibition at 40 mg/kg (Male Sprague-Dawley rats; oral dose 40 mg/kg) was 54%.

Work on `N=C(N)NC(=O)Nc1c(Cl)cccc1Cl` [R'=Cl, R"=Cl, Rm=H, R6=H, R1=H] yielded an inhibition at 0.125 mg/kg (Male Sprague-Dawley rats; oral dose 0.125 mg/kg) of 54%.

Work on `N=C(N)NC(=O)Nc1c(F)cccc1Cl` [R'=Cl, R"=F, Rm=H, R6=H, R1=H] yielded an inhibition at 0.25 mg/kg (Male Sprague-Dawley rats) of 60%.

`Cc1ccc(NC(=O)NC(=N)N)c(Cl)c1` [R'=Cl, R"=H, Rm=4-CH3, R6=H, R1=H] gave an inhibition at 10 mg/kg (Male Sprague-Dawley rats) of 40%.

In the case of `N=C(N)NC(=O)Nc1ccc(Cl)cc1Cl` [R'=Cl, R"=H, Rm=4-Cl, R6=H, R1=H], the inhibition at 10 mg/kg (Male Sprague-Dawley rats) is reported as 85%.

`CCc1cccc(C)c1NC(=O)NC(=N)N` [R'=ET, R"=CH3, Rm=H, R6=H, R1=H] was tested, and the inhibition at 0.5 mg/kg (Male Sprague-Dawley rats) was 30%.

With `CCc1cccc(CC)c1N(C)C(=O)NC(=N)N` [R'=ET, R"=ET, Rm=H, R6=CH3, R1=H] the inhibition at 4 mg/kg [1] was 12%.

In the case of `CCc1cccc(CC)c1NC(=O)NC(=N)N` [R'=ET, R"=ET, Rm=H, R6=H, R1=H], the inhibition at 2.5 mg/kg (Male Sprague-Dawley rats; oral dose 2.5 mg/kg) is reported as 83%.

`N=C(N)NC(=O)Nc1ccc(Cl)c(Cl)c1` [R'=H, R"=H, Rm=3-Cl 4-Cl, R6=H, R1=H] was tested, and the inhibition at 10 mg/kg (Male Sprague-Dawley rats) was 74%.

Work on `CCNC(=N)NC(=O)Nc1ccc(N)cc1` [R'=H, R"=H, Rm=4-NH2, R6=H, R1=ET] yielded an inhibition at 4 mg/kg [1] of 20%.

In the case of `N=C(N)NC(=O)Nc1ccc([N+](=O)[O-])cc1` [R'=H, R"=H, Rm=4NO2, R6=H, R1=H], the inhibition at 10 mg/kg (Male Sprague-Dawley rats) is reported as 59%.

Work on `COc1cccc(C)c1NC(=O)NC(=N)N` [R'=OCH3, R"=CH3, Rm=H, R6=H, R1=H] yielded an inhibition at 0.5 mg/kg (Male Sprague-Dawley rats) of 70%.

Source: patent EP0073276A1, “A method of increasing the feed efficiency of animals, and compositions for use in such a method” (RORER INTERNATIONAL (OVERSEAS) INC., priority 1981, dated 1983)
